Measured values taken from patent US20260069606A1, “Oxidative Stress and Diabetes Treatment with Cobinamide” (The Regents of the University of California, priority 2022, published 2026).

Columns and labels:
[1] = tested on: streptozotocin diabetic mice; assay: Fasting blood glucose and intraperitoneal glucose tolerance test; assay type: in vivo; conditions: fasting blood glucose and IPGTT after three months
Text: The water was replenished twice a week.
Over the three-month treatment period, the non-diabetic mice gained an average of 4.1±0.8 g. while the diabetic mice lost an average of 0.3 g, with wide variation in weight change among the latter mice.

[2] = physiological conditions; 50 mM potassium phosphate pH 7.4, three-fold molar excess of reductant
Experimental: H9c2 cells were incubated for 30 min with vehicle, 2.5 μM cobinamide, or 5 μM rotenone, the latter in the absence or presence of 2.5 μM cobinamide, imisopasem, MnTBAP, or cobalamin; 5 μM MitoSOX was added during the last 10 min. The cells were incubated with 1 mg/ml DAPI for 3 min to counterstain nuclei, and then visualized under a fluorescence microscope. […] Equal-sized representative areas for each condition are shown for MitoSOX staining (red fluorescence) and the same area showing merged MitoSOX and DAPI staining. […] The amount of red fluorescence was quantified by Image J analysis. Data are the mean±SD of three independent experiments; in each experiment two separate equal-sized areas were analyzed containing ˜75 cells per area. […] H9c2 cells were incubated for 10 min with 10 μM JC-1, washed once with PBS, and then incubated for 30 min with vehicle, 2.5 μM cobinamide, or 5 μM rotenone in the absence or presence of 2.5 μM of the indicated drugs as described in Panels A, B. FIG. 3C. Cells were visualized under a fluorescence microscope and equal-sized representative areas of each condition are shown, with red and green fluorescence shown for the same area. […] The amount of red and green fluorescence was quantified by Image J analysis and the red to green ratio was calculated. The slides were analyzed by an operator who was blinded to the specific conditions. Data are the mean±SD of three independent experiments; in each experiment two separate equal-sized areas were analyzed containing ˜75 cells per area. […] Blots from four independent experiments were analyzed by densitometric scanning (Li-Cor Odyssey software) in a range where band intensity was linear. The ratio of the pJNK band to GAPDH was calculated, and the results normalized to control untreated cells. […] The UV-visible spectrum of Chi(III) in 50 mM potassium phosphate buffer, pH 7.4 was recorded before (black line) and immediately after adding a three-fold molar excess of ascorbate (blue line), cysteine (teal line), or reduced glutathione (GSH, pink line). […]

With `C/C1=C2/[N-][C@H]([C@H](CC(N)=O)[C@@]2(C)CCC(=O)NC[C@@H](C)O)[C@]2(C)N=C(/C(C)=C3N=C(/C=C4N=C1[C@@H](CCC(N)=O)C\4(C)C)[C@@H](CCC(N)=O)[C@]\3(C)CC(N)=O)[C@@H](CCC(N)=O)[C@]2(C)CC(N)=O.[Co+3]` [cobinamide, aquohydroxo-cobinamide] the “Glucose intolerance versus mice not receiving drug” value [1] was “same degree of glucose intolerance” and the “Reduction by ascorbate, cysteine and reduced glutathione (GSH)” value [2] was “readily reduced to Cbi(II)”.
